Laboratory results reported in publication PMC5736175, “Nicotinic alpha 7 receptor agonists EVP-6124 and BMS-933043, attenuate scopolamine-induced deficits in visuo-spatial paired associates learning” (PLoS ONE, 2017).
“And” between values parts separate entries of the source, which are not always exact repeats. Equal values may be shown once. “Also recorded” adds a separate entry of the source.

Test system: scopolamine-treated cynomolgus monkeys
Experiment: Scopolamine-induced impairment of vsPAL task performance, treatment + scopolamine
Format: in vivo, cynomolgus monkeys (Macaca Fasicularis)
Conditions: for Cohen's d / effect r: eventual accuracy, 4-stimuli; for mean (cohen's d calculations): eventual correct; for % Completion / Average Response Latency (Avg Rsp Lat) / Eventual Correct, 2 Stimuli / Eventual Correct, 3 Stimuli / Eventual Correct, 4 Stimuli / Eventual Correct, Overall Mean % Correct / Initial Correct, 3 Stimuli / Initial Correct, 4 Stimuli / Initial Correct, Overall Mean % Correct / Initial correct, 2 Stimuli: im + Scopolamine
[1] = 0.03 mg/kg + scopolamine vs vehicle+scopolamine
[2] = 0.1 mg/kg + scopolamine vs vehicle+scopolamine
[3] = 0.3 mg/kg + scopolamine vs vehicle+scopolamine
[4] = BMS-933043 0.03 mg/kg, group MEAN
[5] = BMS-933043 0.03 mg/kg, individual animals, 0.03 mg/kg
[6] = BMS-933043 0.1 mg/kg, group MEAN
[7] = BMS-933043 0.1 mg/kg, individual animals, 0.1 mg/kg
[8] = BMS-933043 0.3 mg/kg, group MEAN
[9] = BMS-933043 0.3 mg/kg, individual animals, 0.3 mg/kg

c1cn(-c2cc(NC3=NC[C@@]4(CN5CCC4CC5)O3)ncn2)cn1 [BMS-933043, (2R)-N-(6-(1H-imidazol-1-yl)-4-pyrimidinyl)-4'H-spiro[4-azabicyclo[2.2.2]octane-2,5'-[1, 3]oxazol]-2'-amine]
Cohen's d [1]: 0.64
effect r [1]: 0.306
Cohen's d (0.03 mg/kg + scopolamine vs vehicle+scopolamine, listed as 933043): 0.643
Cohen's d [2]: 0.73
effect r [2]: 0.343
Cohen's d (0.1 mg/kg + scopolamine vs vehicle+scopolamine, listed as 933043): 0.7311
Cohen's d [3]: 1.2
effect r [3]: 0.51
effect on scopolamine-induced impairment of eventual accuracy (0.03, 0.1 and 0.3 mg/kg i.m., 4-stimuli condition): significantly ameliorated; also recorded: significantly reversed
mean (cohen's d calculations) (0.03 mpk + scop, 4-stimuli condition): 81.7
mean (cohen's d calculations) (0.1 mpk + scop, 4-stimuli condition): 81.4
mean (cohen's d calculations) (0.3 mpk + scop, 4-stimuli condition): 90.0
% Completion [4]: 80.9%
Average Response Latency (Avg Rsp Lat) [4]: 2008.1 ms
Eventual Correct, 2 Stimuli [4]: 100.0%
Eventual Correct, 3 Stimuli [4]: 88.6%
Eventual Correct, 4 Stimuli [4]: 81.7%
Eventual Correct, Overall Mean % Correct [4]: 89.8%
Initial Correct, 3 Stimuli [4]: 58.6%
Initial Correct, 4 Stimuli [4]: 38.3%
Initial Correct, Overall Mean % Correct [4]: 63.6%
Initial correct, 2 Stimuli [4]: 90.0%
Eventual Correct, 2 Stimuli (BMS-933043 0.03 mg/kg, individual animals): 100.0%
% Completion [5]: 81.8% and 100.0% and 81.3% and 32.1% and 72.4% and 98.5%
Average Response Latency (Avg Rsp Lat) [5]: 2181.5 ms and 1558.2 ms and 1198.4 ms and 2787.4 ms and 1505.0 ms and 2151.4 ms and 2675.1 ms
Eventual Correct, 3 Stimuli [5]: 90.0% and 100.0% and 50.0%
Eventual Correct, 4 Stimuli [5]: 100.0% and 90.0% and 40.0% and 80.0%
Eventual Correct, Overall Mean % Correct [5]: 96.7% and 76.7% and 100.0% and 75.0% and 90.0% and 93.3%
Initial Correct, 3 Stimuli [5]: 70.0% and 60.0% and 40.0% and 80.0% and 20.0%
Initial Correct, 4 Stimuli [5]: 40.0% and 10.0% and 80.0% and 20.0%
Initial Correct, Overall Mean % Correct [5]: 70.0% and 66.7% and 56.7% and 76.7% and 65.0% and 40.0%
Initial correct, 2 Stimuli [5]: 100.0% and 90.0% and 80.0%
% Completion [6]: 84.8%
Average Response Latency (Avg Rsp Lat) [6]: 1958.7 ms
Eventual Correct, 2 Stimuli [6]: 100.0%
Eventual Correct, 3 Stimuli [6]: 98.6%
Eventual Correct, 4 Stimuli [6]: 81.4%
Eventual Correct, Overall Mean % Correct [6]: 93.3%
Initial Correct, 3 Stimuli [6]: 75.7%
Initial Correct, 4 Stimuli [6]: 35.7%
Initial Correct, Overall Mean % Correct [6]: 66.7%
Initial correct, 2 Stimuli [6]: 88.6%
Eventual Correct, 2 Stimuli (BMS-933043 0.1 mg/kg, individual animals): 100.0%
% Completion [7]: 83.0% and 98.5% and 77.8% and 81.4% and 55.7% and 97.1% and 100.0%
Average Response Latency (Avg Rsp Lat) [7]: 1783.8 ms and 1549.9 ms and 1223.3 ms and 2854.5 ms and 1899.4 ms and 1717.2 ms and 2683.0 ms
Eventual Correct, 3 Stimuli [7]: 90.0% and 100.0%
Eventual Correct, 4 Stimuli [7]: 90.0% and 80.0% and 70.0% and 60.0% and 100.0%
Eventual Correct, Overall Mean % Correct [7]: 93.3% and 90.0% and 86.7% and 100.0% and 96.7%
Initial Correct, 3 Stimuli [7]: 80.0% and 60.0% and 70.0% and 90.0% and 100.0%
Initial Correct, 4 Stimuli [7]: 50.0% and 10.0% and 40.0% and 30.0% and 70.0%
Initial Correct, Overall Mean % Correct [7]: 76.7% and 53.3% and 66.7% and 90.0% and 60.0%
Initial correct, 2 Stimuli [7]: 100.0% and 90.0% and 80.0%
% Completion [8]: 86.7%
Average Response Latency (Avg Rsp Lat) [8]: 1774.3 ms
Eventual Correct, 2 Stimuli [8]: 100.0%
Eventual Correct, 3 Stimuli [8]: 94.3%
Eventual Correct, 4 Stimuli [8]: 90.0%
Eventual Correct, Overall Mean % Correct [8]: 94.3%
Initial Correct, 3 Stimuli [8]: 68.6%
Initial Correct, 4 Stimuli [8]: 45.0%
Initial Correct, Overall Mean % Correct [8]: 67.6%
Initial correct, 2 Stimuli [8]: 91.4%
Eventual Correct, 2 Stimuli (BMS-933043 0.3 mg/kg, individual animals): 100.0%
% Completion [9]: 86.3% and 100.0% and 97.7% and 32.1% and 95.8% and 95.1%
Average Response Latency (Avg Rsp Lat) [9]: 1690.5 ms and 1666.2 ms and 1269.7 ms and 2215.8 ms and 1344.9 ms and 1971.0 ms and 2262.1 ms
Eventual Correct, 3 Stimuli [9]: 100.0% and 60.0%
Eventual Correct, 4 Stimuli [9]: 80.0% and 100.0% and 90.0%
Eventual Correct, Overall Mean % Correct [9]: 93.3% and 100.0% and 80.0% and 96.7%
